Active and inactive are the calls of the source.
Columns and labels:
Cytochrome P450 2C9 [1] = target: T1, Cytochrome P450 2C9 (Homo sapiens, UniProt P11712)
Cytochrome P450 3A4 = Cytochrome P450 3A4 (Homo sapiens, UniProt P08684);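 note: CYP3A4 tested as one member of a cytochrome P450 panel screen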
Bcl-2-related protein A1 = target: T2, Bcl-2-related protein A1 (Mus musculus, UniProt Q07440); type: functional;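 note: confirmatory dose–response counterscreen on Bfl-1, used to check hits from a UBC13 polyubiquitin inhibitor campaign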
T2 sequence (Q07440 whole entry): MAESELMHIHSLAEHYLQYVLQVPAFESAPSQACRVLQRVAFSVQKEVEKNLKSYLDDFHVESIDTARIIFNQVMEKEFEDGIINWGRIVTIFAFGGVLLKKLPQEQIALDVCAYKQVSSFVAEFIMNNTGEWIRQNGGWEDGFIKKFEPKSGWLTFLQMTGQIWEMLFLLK

[2] = target: T3, Ubiquitin-conjugating enzyme E2 N (Homo sapiens, UniProt P61088); type: functional
T3 sequence (P61088 whole entry): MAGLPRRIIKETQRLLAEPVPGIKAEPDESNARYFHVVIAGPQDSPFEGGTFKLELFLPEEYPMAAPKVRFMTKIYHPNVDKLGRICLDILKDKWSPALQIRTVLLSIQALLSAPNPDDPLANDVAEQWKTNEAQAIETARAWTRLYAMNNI

[3] = target: T3, Ubiquitin-conjugating enzyme E2 N; type: functional; remark: listed apart in the source
Trypsin = Trypsin (Sus scrofa, UniProt P00761); test: trypsin protease activity blockade – biochemical, quenched peptide fluorescence, cherry-pick, selectivity assay for Rce1 protease inhibitor project, dose response (AID 488789)
CAAX prenyl protease 2 [4] = target: CAAX prenyl protease 2 (Homo sapiens, UniProt Q9Y256); test: inhibition of Ras-converting CAAX protease Rce1 – biochemical, yeast membranes, quenched-peptide fluorescence, cherry-pick, dose response (AID 588849)
Cytochrome P450 2C9 [5] = target: T1, Cytochrome P450 2C9; remark: listed apart in the source
[6] = target: T4, Short transient receptor potential channel 4 (Mus musculus, UniProt Q9QUQ5); test: calcium entry via TRPC4 opening agents – cell-based, HEK293 TRPC4/mu-opioid, Fluo-4 calcium, dose response (AID 434937); type: functional
T4 sequence (Q9QUQ5 whole entry): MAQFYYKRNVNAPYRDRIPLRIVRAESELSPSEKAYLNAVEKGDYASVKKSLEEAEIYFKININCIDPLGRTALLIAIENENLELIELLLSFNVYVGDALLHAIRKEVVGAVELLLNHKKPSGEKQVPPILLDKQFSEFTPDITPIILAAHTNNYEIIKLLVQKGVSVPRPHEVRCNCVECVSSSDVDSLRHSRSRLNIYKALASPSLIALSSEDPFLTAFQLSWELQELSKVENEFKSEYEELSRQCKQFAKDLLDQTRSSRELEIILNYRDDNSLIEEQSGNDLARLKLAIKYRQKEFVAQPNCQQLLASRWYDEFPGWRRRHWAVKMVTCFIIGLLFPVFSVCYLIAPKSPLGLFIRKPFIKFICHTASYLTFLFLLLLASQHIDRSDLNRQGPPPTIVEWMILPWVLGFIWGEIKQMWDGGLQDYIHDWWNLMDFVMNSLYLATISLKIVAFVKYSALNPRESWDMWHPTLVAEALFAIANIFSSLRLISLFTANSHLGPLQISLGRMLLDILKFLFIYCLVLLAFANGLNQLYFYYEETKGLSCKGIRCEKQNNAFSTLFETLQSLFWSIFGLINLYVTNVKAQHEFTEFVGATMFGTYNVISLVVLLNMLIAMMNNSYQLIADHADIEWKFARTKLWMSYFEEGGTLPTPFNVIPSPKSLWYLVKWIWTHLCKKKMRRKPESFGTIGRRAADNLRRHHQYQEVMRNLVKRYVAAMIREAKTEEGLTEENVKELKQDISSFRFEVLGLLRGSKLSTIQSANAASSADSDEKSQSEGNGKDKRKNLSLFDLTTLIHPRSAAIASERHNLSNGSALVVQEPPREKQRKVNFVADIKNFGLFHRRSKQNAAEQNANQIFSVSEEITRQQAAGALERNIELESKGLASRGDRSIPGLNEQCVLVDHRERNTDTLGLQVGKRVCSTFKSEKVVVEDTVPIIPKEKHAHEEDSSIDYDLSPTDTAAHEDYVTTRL

[7] = target: Delta-type opioid receptor (Homo sapiens, UniProt P41143); test: Counterscreen for agonists of heterodimerization of the mu 1 (OPRM1) and delta 1 (OPRD1) opioid receptors: Luminescence-based cell-based high throughput dose response assay to identify agonists of OPRD1 homodimerization. [Related pubchem assays (depositor defined):AID504326, AID504355, AID504692, AID504904, AID504905]; type: functional
Mu-type opioid receptor = Mu-type opioid receptor (Homo sapiens, UniProt P35372); test: Counterscreen for agonists of heterodimerization of the mu 1 (OPRM1) and delta 1 (OPRD1) opioid receptors: Luminescence-based cell-based high throughput dose response assay to identify agonists of OPRM1 homodimerization.; type: functional;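 note: U2OS cells expressing OPRM1 and beta-arrestin as split beta-galactosidase partners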
[8] = target: 5-hydroxytryptamine receptor 5A (Homo sapiens, UniProt P47898); test: Counterscreen for agonists of OPRM1-OPRD1 heterodimerization: luminescence-based cell-based high throughput dose response assay to identify agonists of 5-hydroxytryptamine (serotonin) 5A receptor (HTR5A). [Related pubchem assays (depositor defined):AID504326, AID504355, AID504692, AID504904, AID504905]; type: functional
[9] = target: Voltage-gated inwardly rectifying potassium channel KCNH2 (Homo sapiens, UniProt Q12809); details: Potency;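 note: confirmatory quantitative high-throughput screen measuring inhibition of hERG channel activity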
CAAX prenyl protease 2 [10] = target: CAAX prenyl protease 2 (Saccharomyces cerevisiae S288c, UniProt Q03530); type: biochemical
CAAX prenyl protease 2 (Saccharomyces cerevisiae S288c, UniProt Q03530), sequence (Q03530 whole entry): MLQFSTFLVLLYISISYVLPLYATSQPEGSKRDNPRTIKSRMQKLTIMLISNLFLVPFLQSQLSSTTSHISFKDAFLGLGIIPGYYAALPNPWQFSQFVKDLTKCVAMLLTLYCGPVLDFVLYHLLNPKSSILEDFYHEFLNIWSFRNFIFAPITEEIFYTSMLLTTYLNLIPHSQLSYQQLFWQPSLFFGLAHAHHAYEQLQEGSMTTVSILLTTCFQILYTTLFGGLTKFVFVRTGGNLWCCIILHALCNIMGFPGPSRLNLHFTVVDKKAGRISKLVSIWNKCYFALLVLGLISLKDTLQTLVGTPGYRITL

CAAX prenyl protease 2 (Homo sapiens, UniProt Q9Y256), sequence (Q9Y256 whole entry): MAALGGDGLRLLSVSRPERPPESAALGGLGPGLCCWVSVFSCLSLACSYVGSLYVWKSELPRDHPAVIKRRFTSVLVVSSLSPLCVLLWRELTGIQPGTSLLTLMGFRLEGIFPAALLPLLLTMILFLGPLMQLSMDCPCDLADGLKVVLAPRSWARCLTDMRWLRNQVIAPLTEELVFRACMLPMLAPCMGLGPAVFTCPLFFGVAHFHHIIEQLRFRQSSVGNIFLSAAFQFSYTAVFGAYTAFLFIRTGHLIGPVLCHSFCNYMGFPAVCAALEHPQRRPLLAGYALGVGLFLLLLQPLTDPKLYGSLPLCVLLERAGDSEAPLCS
T1 sequence (P11712 whole entry): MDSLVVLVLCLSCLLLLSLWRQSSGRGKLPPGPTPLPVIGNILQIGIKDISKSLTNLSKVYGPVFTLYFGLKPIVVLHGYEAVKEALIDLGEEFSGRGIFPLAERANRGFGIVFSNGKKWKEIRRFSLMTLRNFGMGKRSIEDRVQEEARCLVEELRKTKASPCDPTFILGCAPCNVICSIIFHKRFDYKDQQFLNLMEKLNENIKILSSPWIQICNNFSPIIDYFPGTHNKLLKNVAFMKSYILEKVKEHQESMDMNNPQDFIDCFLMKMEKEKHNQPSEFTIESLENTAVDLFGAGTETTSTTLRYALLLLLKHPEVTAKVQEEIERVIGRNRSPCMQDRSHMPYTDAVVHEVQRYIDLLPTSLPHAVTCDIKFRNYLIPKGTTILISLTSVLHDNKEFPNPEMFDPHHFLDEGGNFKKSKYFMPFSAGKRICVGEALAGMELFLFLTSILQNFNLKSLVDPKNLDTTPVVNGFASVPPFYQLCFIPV
Cytochrome P450 3A4, sequence (P08684 whole entry): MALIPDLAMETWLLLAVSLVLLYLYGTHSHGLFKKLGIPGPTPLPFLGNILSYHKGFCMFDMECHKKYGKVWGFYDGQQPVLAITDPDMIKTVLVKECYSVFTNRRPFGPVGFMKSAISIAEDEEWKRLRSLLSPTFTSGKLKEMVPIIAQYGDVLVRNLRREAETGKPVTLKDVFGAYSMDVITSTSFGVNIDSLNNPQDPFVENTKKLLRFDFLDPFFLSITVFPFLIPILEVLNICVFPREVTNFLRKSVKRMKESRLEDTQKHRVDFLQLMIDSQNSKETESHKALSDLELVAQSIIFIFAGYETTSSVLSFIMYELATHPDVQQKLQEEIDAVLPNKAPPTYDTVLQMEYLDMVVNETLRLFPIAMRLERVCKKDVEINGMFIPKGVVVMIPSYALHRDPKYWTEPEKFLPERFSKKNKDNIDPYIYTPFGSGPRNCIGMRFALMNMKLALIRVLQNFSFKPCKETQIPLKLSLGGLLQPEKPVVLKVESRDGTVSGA
Voltage-gated inwardly rectifying potassium channel KCNH2, sequence (Q12809 whole entry): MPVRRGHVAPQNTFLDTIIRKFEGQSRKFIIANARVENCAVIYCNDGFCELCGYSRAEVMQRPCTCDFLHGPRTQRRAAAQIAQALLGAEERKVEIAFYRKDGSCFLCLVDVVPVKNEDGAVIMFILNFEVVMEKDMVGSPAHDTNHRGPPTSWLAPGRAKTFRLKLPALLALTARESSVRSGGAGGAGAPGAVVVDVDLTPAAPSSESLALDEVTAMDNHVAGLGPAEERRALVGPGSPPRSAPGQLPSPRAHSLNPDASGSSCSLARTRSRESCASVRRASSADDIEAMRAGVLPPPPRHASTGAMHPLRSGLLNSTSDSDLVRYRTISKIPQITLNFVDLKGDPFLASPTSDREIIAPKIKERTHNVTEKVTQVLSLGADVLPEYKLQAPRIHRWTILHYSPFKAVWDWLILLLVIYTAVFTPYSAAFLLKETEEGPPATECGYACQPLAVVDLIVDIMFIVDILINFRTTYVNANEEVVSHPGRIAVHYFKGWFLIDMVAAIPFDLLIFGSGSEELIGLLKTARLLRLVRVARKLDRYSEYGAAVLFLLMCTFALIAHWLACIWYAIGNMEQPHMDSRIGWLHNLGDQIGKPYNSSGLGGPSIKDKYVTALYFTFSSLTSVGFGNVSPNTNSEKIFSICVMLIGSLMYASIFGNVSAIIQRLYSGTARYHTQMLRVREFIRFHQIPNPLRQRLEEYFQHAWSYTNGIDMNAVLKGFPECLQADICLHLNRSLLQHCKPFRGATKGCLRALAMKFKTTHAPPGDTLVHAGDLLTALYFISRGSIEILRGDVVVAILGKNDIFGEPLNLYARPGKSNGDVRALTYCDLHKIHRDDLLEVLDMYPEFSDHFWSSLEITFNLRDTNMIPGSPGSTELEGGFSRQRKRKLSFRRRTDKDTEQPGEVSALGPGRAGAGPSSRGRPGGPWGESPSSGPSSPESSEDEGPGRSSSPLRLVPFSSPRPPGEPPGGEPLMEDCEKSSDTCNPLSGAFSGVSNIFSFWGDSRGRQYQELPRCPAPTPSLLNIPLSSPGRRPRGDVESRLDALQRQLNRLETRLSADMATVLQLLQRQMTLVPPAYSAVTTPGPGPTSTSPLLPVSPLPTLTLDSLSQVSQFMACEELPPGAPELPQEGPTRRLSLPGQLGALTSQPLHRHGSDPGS
5-hydroxytryptamine receptor 5A, sequence (P47898 whole entry): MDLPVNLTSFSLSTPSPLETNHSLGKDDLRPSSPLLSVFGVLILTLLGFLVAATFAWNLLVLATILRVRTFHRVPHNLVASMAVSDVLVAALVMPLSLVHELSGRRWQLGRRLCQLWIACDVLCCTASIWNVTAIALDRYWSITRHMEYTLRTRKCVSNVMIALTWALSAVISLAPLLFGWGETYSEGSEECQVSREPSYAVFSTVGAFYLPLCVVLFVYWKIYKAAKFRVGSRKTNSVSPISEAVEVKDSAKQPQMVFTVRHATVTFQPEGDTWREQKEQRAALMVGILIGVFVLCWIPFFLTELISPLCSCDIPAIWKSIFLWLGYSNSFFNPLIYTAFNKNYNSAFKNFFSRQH
Delta-type opioid receptor, sequence (P41143 whole entry): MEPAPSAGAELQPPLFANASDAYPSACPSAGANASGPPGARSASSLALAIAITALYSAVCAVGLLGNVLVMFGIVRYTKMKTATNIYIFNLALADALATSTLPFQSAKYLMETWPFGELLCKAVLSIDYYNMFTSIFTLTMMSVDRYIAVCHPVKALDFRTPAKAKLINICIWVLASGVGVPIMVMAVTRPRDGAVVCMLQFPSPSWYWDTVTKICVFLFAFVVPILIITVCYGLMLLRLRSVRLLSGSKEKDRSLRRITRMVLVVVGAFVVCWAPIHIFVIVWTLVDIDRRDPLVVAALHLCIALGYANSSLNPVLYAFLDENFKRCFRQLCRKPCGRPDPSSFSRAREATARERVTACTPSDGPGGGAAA
Trypsin, sequence (P00761 whole entry): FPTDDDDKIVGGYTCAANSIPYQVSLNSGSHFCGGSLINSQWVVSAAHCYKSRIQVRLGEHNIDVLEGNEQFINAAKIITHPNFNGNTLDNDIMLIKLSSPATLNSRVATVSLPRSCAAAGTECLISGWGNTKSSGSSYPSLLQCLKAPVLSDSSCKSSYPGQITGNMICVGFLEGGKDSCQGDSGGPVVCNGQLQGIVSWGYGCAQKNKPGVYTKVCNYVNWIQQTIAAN
Mu-type opioid receptor, sequence (P35372 whole entry): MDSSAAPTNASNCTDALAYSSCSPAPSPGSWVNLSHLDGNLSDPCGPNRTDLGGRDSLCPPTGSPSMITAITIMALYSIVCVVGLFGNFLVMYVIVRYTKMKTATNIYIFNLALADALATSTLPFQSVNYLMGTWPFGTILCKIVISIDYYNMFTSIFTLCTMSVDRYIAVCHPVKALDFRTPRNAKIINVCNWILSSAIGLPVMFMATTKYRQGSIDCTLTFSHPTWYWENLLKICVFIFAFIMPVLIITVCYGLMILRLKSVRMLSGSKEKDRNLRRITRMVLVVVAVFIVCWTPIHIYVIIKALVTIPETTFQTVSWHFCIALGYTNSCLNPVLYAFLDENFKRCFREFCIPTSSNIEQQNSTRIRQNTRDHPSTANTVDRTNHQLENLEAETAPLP

Compound: O=C(c1ccco1)N1CCC2(CC1)CN(C(c1ccccc1)c1ccccc1)C2
- AC50 (Cytochrome P450 2C9 [1]): 25.1 µM (inconclusive)
- AC50 (Cytochrome P450 3A4): inconclusive

Compound: CCCCn1c(=O)c(C(=O)Nc2ccccc2S(N)(=O)=O)c(O)c2ccccc21
- IC50 (Bcl-2-related protein A1): 2.02 µM (active)
- IC50 [2]: 15.5 µM (active)
- IC50 [3]: > 20 µM (inactive)

Compound: O=C1CCCN1CC(O)CS(=O)(=O)c1ccccc1 (stereo unspecified)
- AC50 (Trypsin): 1.72 µM (active)
- AC50 (CAAX prenyl protease 2 [4]): 17.7 µM (active)
- AC50 (Cytochrome P450 2C9 [5]): inconclusive

Compound: CN(C)C(CNC(=O)c1cnc(Cl)c(Cl)c1)c1ccccc1 (stereo unspecified)
- EC50 [6]: 0.0173 µM (active)
- EC50 [7]: 1.07 µM (active)
- EC50 (Mu-type opioid receptor): 4.67 µM (active)
- EC50 [8]: > 92.4 µM (inactive)

Compound: CC(C)(C=O)Cc1cc(C(C)(C)C)c(O)c(C(C)(C)C)c1
- AC50 [9]: 35.5 µM (inconclusive)

Compound: Cc1nc(-c2ccc(Cl)cc2)sc1C1(C)CC(c2ccccc2Br)=NO1 (stereo unspecified)
- AC50 (CAAX prenyl protease 2 [10]): > 100 µM (inactive)
- AC50 (CAAX prenyl protease 2 [4]): > 100 µM (inactive)

Compound: Cc1nc2c(c(-c3ccccc3)c1C#N)C(=O)c1ccccc1-2
- AC50 (Cytochrome P450 3A4): inconclusive

— ChEMBL document CHEMBL1201862, “PubChem BioAssay data set” (2004)
